Source: PubChem BioAssay (NCI)
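Test compounds were applied to cells in 96-well plates for 48 hours at 5 doses. The concentration for 50% growth inhibition is given as GI50. TGI: concentration producing complete growth inhibition.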

Assays:
Assay in all cases: NCI-60 cell line screen, 48 h
HL-60(TB) leukemia = tested on: HL-60(TB) leukemia
SR leukemia = tested on: SR leukemia
TK-10 renal = tested on: TK-10 renal
RXF 393 renal = tested on: RXF 393 renal
M14 melanoma = tested on: M14 melanoma
U251 CNS = tested on: U251 CNS
T-47D breast = tested on: T-47D breast
UACC-62 melanoma = tested on: UACC-62 melanoma
UACC-257 melanoma = tested on: UACC-257 melanoma
MOLT-4 leukemia = tested on: MOLT-4 leukemia
MDA-MB-435 = tested on: MDA-MB-435
SF-268 CNS = tested on: SF-268 CNS
OVCAR-4 ovarian = tested on: OVCAR-4 ovarian
SN12C renal = tested on: SN12C renal
UO-31 renal = tested on: UO-31 renal
EKVX NSCLC = tested on: EKVX NSCLC
SW-620 colon = tested on: SW-620 colon
MDA-MB-231 breast = tested on: MDA-MB-231 breast
COLO 205 colon = tested on: COLO 205 colon
786-0 renal = tested on: 786-0 renal
SF-539 CNS = tested on: SF-539 CNS
SNB-19 CNS = tested on: SNB-19 CNS
CAKI-1 renal = tested on: CAKI-1 renal
NCI-H23 lung = tested on: NCI-H23 lung
A498 renal = tested on: A498 renal
SK-OV-3 ovarian = tested on: SK-OV-3 ovarian
A549 NSCLC = tested on: A549 NSCLC
HT29 colon = tested on: HT29 colon
PC-3 prostate = tested on: PC-3 prostate
HS 578T breast = tested on: HS 578T breast
OVCAR-5 ovarian = tested on: OVCAR-5 ovarian
HOP-62 NSCLC = tested on: HOP-62 NSCLC
RPMI-8226 leukemia = tested on: RPMI-8226 leukemia
SK-MEL-28 melanoma = tested on: SK-MEL-28 melanoma
HOP-92 NSCLC = tested on: HOP-92 NSCLC
KM12 colon = tested on: KM12 colon
LOX IMVI melanoma = tested on: LOX IMVI melanoma
OVCAR-8 ovarian = tested on: OVCAR-8 ovarian
NCI-H460 lung = tested on: NCI-H460 lung
HCT-116 colon = tested on: HCT-116 colon
DU-145 prostate = tested on: DU-145 prostate
SNB-75 CNS = tested on: SNB-75 CNS
HCT-15 colon = tested on: HCT-15 colon
MCF7 breast = tested on: MCF7 breast
MALME-3M melanoma = tested on: MALME-3M melanoma
NCI-H226 lung = tested on: NCI-H226 lung
CCRF-CEM leukemia = tested on: CCRF-CEM leukemia
SF-295 CNS = tested on: SF-295 CNS
OVCAR-3 ovarian = tested on: OVCAR-3 ovarian
ACHN renal = tested on: ACHN renal
BT-549 breast = tested on: BT-549 breast
K-562 leukemia = tested on: K-562 leukemia
SK-MEL-5 melanoma = tested on: SK-MEL-5 melanoma
HCC-2998 colon = tested on: HCC-2998 colon
NCI-H522 lung = tested on: NCI-H522 lung
SK-MEL-2 melanoma = tested on: SK-MEL-2 melanoma
IGROV1 ovarian = tested on: IGROV1 ovarian
NCI/ADR-RES ovarian = tested on: NCI/ADR-RES ovarian

c1ccc2c(c1)OC(N1CCCC1)c1cnc(N3CCOCC3)nc1-2 (stereo unspecified)
TGI (HL-60(TB) leukemia): > 100 µM | TGI (SR leukemia): > 100 µM | TGI (TK-10 renal): > 100 µM | TGI (RXF 393 renal): 60.4 µM | TGI (M14 melanoma): > 100 µM | TGI (U251 CNS): > 100 µM | TGI (T-47D breast): 45.2 µM | TGI (UACC-62 melanoma): > 100 µM | TGI (UACC-257 melanoma): 74.2 µM | TGI (MOLT-4 leukemia): > 100 µM | TGI (MDA-MB-435): > 100 µM | TGI (SF-268 CNS): > 100 µM | TGI (OVCAR-4 ovarian): > 100 µM | TGI (SN12C renal): > 100 µM | TGI (UO-31 renal): 47.2 µM | TGI (EKVX NSCLC): 79.4 µM | TGI (SW-620 colon): > 100 µM | TGI (MDA-MB-231 breast): > 100 µM | TGI (COLO 205 colon): > 100 µM | TGI (786-0 renal): > 100 µM | TGI (SF-539 CNS): > 100 µM | TGI (SNB-19 CNS): > 100 µM | TGI (CAKI-1 renal): > 100 µM | TGI (NCI-H23 lung): 30.9 µM | TGI (A498 renal): 39.7 µM | TGI (SK-OV-3 ovarian): > 100 µM | TGI (A549 NSCLC): > 100 µM | TGI (HT29 colon): > 100 µM | TGI (PC-3 prostate): > 100 µM | TGI (HS 578T breast): > 100 µM | TGI (OVCAR-5 ovarian): 79.1 µM | TGI (HOP-62 NSCLC): > 100 µM | TGI (RPMI-8226 leukemia): 74.7 µM | TGI (SK-MEL-28 melanoma): > 100 µM | TGI (HOP-92 NSCLC): 55.6 µM | TGI (KM12 colon): > 100 µM | TGI (LOX IMVI melanoma): > 100 µM | TGI (OVCAR-8 ovarian): > 100 µM | TGI (NCI-H460 lung): > 100 µM | TGI (HCT-116 colon): > 100 µM | TGI (DU-145 prostate): > 100 µM | TGI (SNB-75 CNS): 54.4 µM | TGI (HCT-15 colon): > 100 µM | TGI (MCF7 breast): 38.2 µM | TGI (MALME-3M melanoma): > 100 µM | TGI (NCI-H226 lung): > 100 µM | TGI (CCRF-CEM leukemia): > 100 µM | TGI (SF-295 CNS): > 100 µM | TGI (OVCAR-3 ovarian): > 100 µM | TGI (ACHN renal): > 100 µM | TGI (BT-549 breast): 72.8 µM | TGI (K-562 leukemia): > 100 µM

COc1ccc(C2=CC(c3ccc(OC)cc3Br)N3C=CSC3=N2)cc1 (stereo unspecified)
GI50 (HL-60(TB) leukemia): 3.2 µM | TGI (HL-60(TB) leukemia): 19.3 µM | GI50 (SR leukemia): 1.73 µM | TGI (SR leukemia): 7.1 µM | GI50 (TK-10 renal): 13.9 µM | TGI (TK-10 renal): 33.3 µM | GI50 (RXF 393 renal): 7.67 µM | TGI (RXF 393 renal): 22 µM | GI50 (M14 melanoma): 5.21 µM | TGI (M14 melanoma): 20.8 µM | GI50 (U251 CNS): 3.23 µM | TGI (U251 CNS): 14 µM | GI50 (T-47D breast): 9.21 µM | TGI (T-47D breast): 40.4 µM | GI50 (UACC-62 melanoma): 2.79 µM | TGI (UACC-62 melanoma): 10.7 µM | GI50 (UACC-257 melanoma): 10.8 µM | TGI (UACC-257 melanoma): 31.3 µM | GI50 (MOLT-4 leukemia): 2.93 µM | TGI (MOLT-4 leukemia): 9.64 µM | GI50 (MDA-MB-435): 2.58 µM | TGI (MDA-MB-435): 7.95 µM | GI50 (SF-268 CNS): 13.7 µM | TGI (SF-268 CNS): 48.5 µM | GI50 (OVCAR-4 ovarian): 5.04 µM | TGI (OVCAR-4 ovarian): 27.3 µM | GI50 (SN12C renal): 10 µM | TGI (SN12C renal): 25.5 µM | GI50 (UO-31 renal): 7.31 µM | TGI (UO-31 renal): 21.2 µM | GI50 (SW-620 colon): 2 µM | TGI (SW-620 colon): 4.79 µM | GI50 (MDA-MB-231 breast): 8.32 µM | TGI (MDA-MB-231 breast): 36.2 µM | GI50 (COLO 205 colon): 11.3 µM | TGI (COLO 205 colon): 25.1 µM | GI50 (786-0 renal): 13.1 µM | TGI (786-0 renal): 28.7 µM | GI50 (SF-539 CNS): 4.61 µM | TGI (SF-539 CNS): 17.1 µM | GI50 (SK-MEL-5 melanoma): 4.32 µM | TGI (SK-MEL-5 melanoma): 16.6 µM | GI50 (SNB-19 CNS): 9.79 µM | TGI (SNB-19 CNS): 25.3 µM | GI50 (HCC-2998 colon): 5.38 µM | TGI (HCC-2998 colon): 17.8 µM | GI50 (CAKI-1 renal): 13.4 µM | TGI (CAKI-1 renal): 51.4 µM | GI50 (NCI-H23 lung): 15.2 µM | TGI (NCI-H23 lung): 42.8 µM | GI50 (A498 renal): 13.3 µM | TGI (A498 renal): 32.5 µM | GI50 (SK-OV-3 ovarian): 6.78 µM | TGI (SK-OV-3 ovarian): 27 µM | GI50 (NCI-H522 lung): 5.22 µM | TGI (NCI-H522 lung): 20.7 µM | GI50 (A549 NSCLC): 10.5 µM | TGI (A549 NSCLC): 39 µM | GI50 (SK-MEL-2 melanoma): 15.2 µM | TGI (SK-MEL-2 melanoma): 31.3 µM | GI50 (HT29 colon): 2.09 µM | TGI (HT29 colon): 4.87 µM | GI50 (PC-3 prostate): 6.4 µM | TGI (PC-3 prostate): 31.9 µM | GI50 (HS 578T breast): 14.4 µM | TGI (HS 578T breast): 66.5 µM | GI50 (OVCAR-5 ovarian): 12.4 µM | TGI (OVCAR-5 ovarian): 32.3 µM | GI50 (HOP-62 NSCLC): 10.5 µM | TGI (HOP-62 NSCLC): 24.8 µM | GI50 (RPMI-8226 leukemia): 1.86 µM | TGI (RPMI-8226 leukemia): 7.29 µM | GI50 (SK-MEL-28 melanoma): 8.83 µM | TGI (SK-MEL-28 melanoma): 22.3 µM | GI50 (HOP-92 NSCLC): 5.78 µM | TGI (HOP-92 NSCLC): 41.8 µM | GI50 (IGROV1 ovarian): 7.31 µM | TGI (IGROV1 ovarian): 30.7 µM | GI50 (NCI/ADR-RES ovarian): 4.43 µM | TGI (NCI/ADR-RES ovarian): 29 µM | GI50 (KM12 colon): 2.28 µM | TGI (KM12 colon): 5.06 µM | GI50 (LOX IMVI melanoma): 2 µM | TGI (LOX IMVI melanoma): 4.03 µM | GI50 (OVCAR-8 ovarian): 4.09 µM | TGI (OVCAR-8 ovarian): 27.8 µM | GI50 (NCI-H460 lung): 11.9 µM | TGI (NCI-H460 lung): 34.6 µM | GI50 (HCT-116 colon): 1.66 µM | TGI (HCT-116 colon): 3.17 µM | GI50 (DU-145 prostate): 11.9 µM | TGI (DU-145 prostate): 33.1 µM | GI50 (SNB-75 CNS): 15.6 µM | TGI (SNB-75 CNS): 43.7 µM | GI50 (HCT-15 colon): 1.49 µM | TGI (HCT-15 colon): 3.41 µM | GI50 (MCF7 breast): 1.51 µM | TGI (MCF7 breast): 11.2 µM | GI50 (MALME-3M melanoma): 14 µM | TGI (MALME-3M melanoma): 32.3 µM | GI50 (NCI-H226 lung): 14.7 µM | TGI (NCI-H226 lung): 37.8 µM | GI50 (CCRF-CEM leukemia): 2.69 µM | TGI (CCRF-CEM leukemia): > 100 µM | GI50 (SF-295 CNS): 11.5 µM | TGI (SF-295 CNS): 38.7 µM | GI50 (OVCAR-3 ovarian): 4.11 µM | TGI (OVCAR-3 ovarian): 14.8 µM | GI50 (ACHN renal): 2.39 µM | TGI (ACHN renal): 5.88 µM | GI50 (BT-549 breast): 3.19 µM | TGI (BT-549 breast): 12.1 µM | GI50 (K-562 leukemia): 2.47 µM | TGI (K-562 leukemia): 8.26 µM
